# Where two headings read alike, the source gives them in different places.
# Tests used:
# human α2A‐adrenoceptor [1] = molecular target: T1, human α2A‐adrenoceptor (Homo sapiens, UniProt P08913)
# T1 sequence (P08913 1-465): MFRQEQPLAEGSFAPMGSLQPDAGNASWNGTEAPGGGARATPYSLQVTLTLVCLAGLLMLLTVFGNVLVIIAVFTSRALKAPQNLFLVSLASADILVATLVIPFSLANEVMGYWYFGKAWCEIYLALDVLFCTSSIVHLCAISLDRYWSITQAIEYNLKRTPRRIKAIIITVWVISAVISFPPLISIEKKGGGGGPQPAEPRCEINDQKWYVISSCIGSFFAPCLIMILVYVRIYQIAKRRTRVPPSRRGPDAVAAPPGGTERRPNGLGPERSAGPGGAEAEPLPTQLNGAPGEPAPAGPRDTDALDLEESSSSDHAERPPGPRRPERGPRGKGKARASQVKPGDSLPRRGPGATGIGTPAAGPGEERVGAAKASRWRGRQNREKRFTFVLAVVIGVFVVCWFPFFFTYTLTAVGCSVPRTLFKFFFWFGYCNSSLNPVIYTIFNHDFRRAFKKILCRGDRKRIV
# human α2C‐adrenoceptor [2] = molecular target: T2, human α2C‐adrenoceptor (Homo sapiens, UniProt P18825)
# T2 sequence (P18825 1-462): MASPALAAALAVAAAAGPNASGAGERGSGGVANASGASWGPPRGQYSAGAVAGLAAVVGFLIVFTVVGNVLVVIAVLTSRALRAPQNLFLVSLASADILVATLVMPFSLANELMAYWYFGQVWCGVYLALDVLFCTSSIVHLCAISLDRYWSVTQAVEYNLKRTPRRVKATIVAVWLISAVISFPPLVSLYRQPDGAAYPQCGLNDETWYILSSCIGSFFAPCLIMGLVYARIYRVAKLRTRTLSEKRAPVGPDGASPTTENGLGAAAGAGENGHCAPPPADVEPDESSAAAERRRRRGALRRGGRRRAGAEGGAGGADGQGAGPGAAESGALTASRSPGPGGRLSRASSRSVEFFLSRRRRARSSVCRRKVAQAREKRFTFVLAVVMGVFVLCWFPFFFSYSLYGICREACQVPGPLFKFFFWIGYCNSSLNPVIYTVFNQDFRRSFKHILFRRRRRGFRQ
# human α2C‐adrenoceptor [3] = molecular target: T2, human α2C‐adrenoceptor; experiment: 3H‐rauwolscine whole cell binding in CHO‐α2C cells; design: expressed in transfected cells; host or cells: CHO-K1 with CRE-SPAP reporter
# human α2A‐adrenoceptor [4] = molecular target: T1, human α2A‐adrenoceptor; experiment: ERK1/2‐phosphorylation in CHO‐α2A cells; format: cell-based; design: expressed in transfected cells; host or cells: CHO-K1 with CRE-SPAP reporter
# human α2C‐adrenoceptor [5] = molecular target: T2, human α2C‐adrenoceptor; experiment: ERK1/2‐phosphorylation in CHO‐α2C cells; format: cell-based; design: expressed in transfected cells; host or cells: CHO-K1 with CRE-SPAP reporter
# human α2A‐adrenoceptor [6] = molecular target: T1, human α2A‐adrenoceptor; experiment: 3H‐rauwolscine whole cell binding in CHO‐α2A cells; design: expressed in transfected cells; host or cells: CHO-K1 with CRE-SPAP reporter
# [7] = CHO‐α2C cells, CRE‐SPAP production in the absence of forskolin
smiles,measurement,setting,value
NC[C@H](O)c1ccc(O)c(O)c1 [Noradrenaline],"% 3 μM forskolin, CRE‐SPAP (without forskolin)","human α2A‐adrenoceptor [1]; CHO‐α2A (cell line 1), maximum response compared to 3 μM forskolin",171.5 ± 11.1%
same,IC50,human α2C‐adrenoceptor [2],309 nM
same,"% inhibition, CRE‐SPAP (with forskolin)","human α2C‐adrenoceptor [2]; CHO‐α2C cells, % inhibition from the 3 μM forskolin control, mean ± SEM",83.0 ± 3.1%
same,"Log EC50 (Gs), CRE‐SPAP (without forskolin)",human α2C‐adrenoceptor [2]; [7],No response
same,Kd,"human α2C‐adrenoceptor [3]; 3H‐rauwolscine whole cell binding, living cells, negative log KD, mean ± SEM, read-out: Log KD, CHO‐α2C (converted)",32400 nM
same,Kd,"human α2C‐adrenoceptor [3]; CHO‐α2C cells, 3H‐rauwolscine whole cell binding, given as negative log KD, mean only (SEM in Table 4), read-out: Log KD (converted)",32400 nM
same,"% 10 μM PDBu, ERK1/2‐phosphorylation","human α2A‐adrenoceptor [4]; CHO‐α2A, maximum response compared to 10 μM PDBu",121.9 ± 6.3%
same,"% 10 μM PDBu, ERK1/2‐phosphorylation","human α2C‐adrenoceptor [5]; CHO‐α2C cells, maximum response compared to 10 μM PDBu, mean ± SEM",142.3 ± 10.7%
COc1ccc(OC)c(C(O)CNC(=O)CN)c1 (stereo not shown) [Midodrine],"% 10 μM PDBu, ERK1/2‐phosphorylation, response at 100 μM agonist","human α2A‐adrenoceptor [4]; CHO‐α2A, response at 100 μM",101.0 ± 15.5%
same,"% 10 μM PDBu, ERK1/2‐phosphorylation","human α2C‐adrenoceptor [5]; CHO‐α2C cells, response at 100 μM ligand (no EC50 given) compared to 10 μM PDBu",80.9 ± 15.6%
CCC1(c2cnc[nH]2)Cc2ccccc2C1 [Atipamezole],"Log EC50 (Gs), CRE‐SPAP (without forskolin)","human α2A‐adrenoceptor [1]; CHO‐α2A (cell line 1), absence of forskolin",No response
same,"Log IC50 (Gi), CRE‐SPAP (with forskolin)","human α2A‐adrenoceptor [1]; CHO‐α2A (cell line 1, 5830 fmol/mg protein), 3 μM forskolin",No response
same,"% inhibition, CRE‐SPAP (with forskolin)",human α2C‐adrenoceptor [2],15.8 ± 7.5%
same,IC50,human α2C‐adrenoceptor [2],200 nM
same,Log efficacy ratio (KD/IC50),human α2C‐adrenoceptor [2],−1.78
same,"Log EC50 (Gs), CRE‐SPAP (without forskolin)",human α2C‐adrenoceptor [2]; [7],No response
same,"% 10 μM PDBu, ERK1/2‐phosphorylation",human α2A‐adrenoceptor [4],42.4 ± 5.9%
same,EC50,"human α2A‐adrenoceptor [4]; CHO‐α2A, read-out: Log EC50, ERK1/2‐phosphorylation (converted)",28.8 nM
same,"% 10 μM PDBu, ERK1/2‐phosphorylation",human α2C‐adrenoceptor [5],63.7 ± 8.3%
same,EC50,"human α2C‐adrenoceptor [5]; CHO‐α2C cells, given as negative log EC50, mean ± SEM, read-out: Log EC50, ERK1/2‐phosphorylation (converted)",8.32 nM
C=CCc1ccccc1OC(C)C1=NCCN1 (stereo not shown) [Allyphenyline],"% inhibition, CRE‐SPAP (with forskolin)",human α2A‐adrenoceptor [1],50.6 ± 6.3%
same,"% inhibition, CRE‐SPAP (with forskolin)",human α2C‐adrenoceptor [2],66.8 ± 4.7%
same,IC50,human α2C‐adrenoceptor [2],63.1 nM
same,"Log EC50 (Gs), CRE‐SPAP (without forskolin)",human α2C‐adrenoceptor [2],No response
same,Kd,human α2C‐adrenoceptor [3],214 nM
same,Kd,"human α2C‐adrenoceptor [3]; Log KD, CHO‐α2C",214 nM
same,"% 10 μM PDBu, ERK1/2‐phosphorylation",human α2A‐adrenoceptor [4],127.1 ± 13.0%
same,"% 10 μM PDBu, ERK1/2‐phosphorylation",human α2C‐adrenoceptor [5],134.5 ± 17.9%
same,EC50,human α2C‐adrenoceptor [5],11.7 nM
CC(N)C(O)c1ccc(O)c(O)c1 (stereo not drawn) [α‐methylnorepinephrine],"% 3 μM forskolin, CRE‐SPAP (without forskolin)",human α2A‐adrenoceptor [1],171.1 ± 4.3%
same,"Log EC50 (Gs), CRE‐SPAP (with forskolin)",human α2A‐adrenoceptor [1],−5.31 ± 0.05
same,"Log EC50 (Gs), CRE‐SPAP (without forskolin)",human α2A‐adrenoceptor [1],−5.29 ± 0.02
same,"Log IC50 (Gi), CRE‐SPAP (with forskolin)",human α2A‐adrenoceptor [1],−6.47 ± 0.05
same,"% inhibition, CRE‐SPAP (with forskolin)",human α2C‐adrenoceptor [2],85.2 ± 3.0%
same,"Log EC50 (Gs), CRE‐SPAP (without forskolin)",human α2C‐adrenoceptor [2],No response
same,"Log IC50 (Gi), CRE‐SPAP (with forskolin)",human α2C‐adrenoceptor [2],−6.52 ± 0.12
same,"Log KD (apparent), CHO‐α2A",human α2A‐adrenoceptor [6],−3.69 ± 0.04^app
same,Log KD (binding),human α2A‐adrenoceptor [6],−3.69
same,Log KD,human α2C‐adrenoceptor [3],−5.16
same,"% 10 μM PDBu, ERK1/2‐phosphorylation",human α2A‐adrenoceptor [4],142.6 ± 22.3%

# Reference: publication PMC9471048, “The signaling and selectivity of α‐adrenoceptor agonists for the human α2A, α2B and α2C‐adrenoceptors and comparison with human α1 and β‐adrenoceptors” (Pharmacology Research & Perspectives, 2022)
